Where “and” joins values, the source holds several entries; their conditions need not be identical. Identical values can stand only once. Toxic doses and inconclusive results are not listed. The calls were made as follows: active = survival T/C of 150% or more; inactive = T/C below 125% in these data.
Test system: CD2F1 mice, L1210 leukemia ip, survival T/C
Experiment: NCI In Vivo Anticancer Drug Screen. Data for tumor model L1210 Leukemia (intraperitoneal) in CD2F1 (CDF1) mice
Settings: higher = longer survival
Method in brief: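 Antitumor effect is scored in animals hosting a serially transplanted tumor. Values compare compound-dosed animals against vehicle-only controls as a simple quotient.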

[1] = endpoint: mean survival time, dose: 100.0 mg/kg/injection, schedule: Q04DX003 (ip), vehicle: saline with Tween-80
[2] = endpoint: mean survival time, dose: 200.0 mg/kg/injection, schedule: Q04DX003 (ip), vehicle: saline with Tween-80
[3] = endpoint: mean survival time, dose: 400.0 mg/kg/injection, schedule: Q04DX003 (ip), vehicle: saline with Tween-80

Measured: T/C

Nc1ncnc2c1ccn2C1OC(CO)C(O)C1O (stereo not drawn)
inactive: endpoint: mean survival time, dose: 0.13 mg/kg/injection, schedule: Q01DX009 (ip), vehicle: saline 104 % of control and 106 % of control | endpoint: mean survival time, dose: 0.16 mg/kg/injection, schedule: Q01DX010 (ip), vehicle: saline 98 % of control and 108 % of control | endpoint: mean survival time, dose: 0.25 mg/kg/injection, schedule: Q01DX009 (ip), vehicle: saline 104 % of control and 110 % of control | endpoint: mean survival time, dose: 0.32 mg/kg/injection, schedule: Q01DX010 (ip), vehicle: saline 104 % of control and 111 % of control | endpoint: mean survival time, dose: 0.5 mg/kg/injection, schedule: Q01DX009 (ip), vehicle: saline 103 % of control and 104 % of control | endpoint: mean survival time, dose: 0.5 mg/kg/injection, schedule: Q03HX008 (ip), vehicle: carboxymethylcellulose (CMC) 102 % of control | endpoint: mean survival time, dose: 0.5 mg/kg/injection, schedule: Q06HX004 (ip), vehicle: carboxymethylcellulose (CMC) 101 % of control | endpoint: mean survival time, dose: 0.63 mg/kg/injection, schedule: Q01DX009 (ip), vehicle: saline 114 % of control | endpoint: mean survival time, dose: 0.63 mg/kg/injection, schedule: Q01DX010 (ip), vehicle: saline 98 % of control and 107 % of control | endpoint: mean survival time, dose: 1.0 mg/kg/injection, schedule: Q01DX001 (ip), vehicle: carboxymethylcellulose (CMC) 109 % of control | endpoint: mean survival time, dose: 1.0 mg/kg/injection, schedule: Q01DX009 (ip), vehicle: saline 99 % of control and 107 % of control | endpoint: mean survival time, dose: 1.0 mg/kg/injection, schedule: Q03HX008 (ip), vehicle: carboxymethylcellulose (CMC) 104 % of control | endpoint: mean survival time, dose: 1.0 mg/kg/injection, schedule: Q06HX004 (ip), vehicle: carboxymethylcellulose (CMC) 104 % of control | endpoint: mean survival time, dose: 1.0 mg/kg/injection, schedule: Q#A X002 (ip), vehicle: carboxymethylcellulose (CMC) 108 % of control | endpoint: mean survival time, dose: 1.25 mg/kg/injection, schedule: Q01DX009 (ip), vehicle: saline 118 % of control | endpoint: mean survival time, dose: 1.25 mg/kg/injection, schedule: Q01DX010 (ip), vehicle: saline 118 % of control and 119 % of control | endpoint: mean survival time, dose: 2.0 mg/kg/injection, schedule: Q03HX008 (ip), vehicle: carboxymethylcellulose (CMC) 117 % of control | endpoint: mean survival time, dose: 2.0 mg/kg/injection, schedule: Q06HX004 (ip), vehicle: carboxymethylcellulose (CMC) 107 % of control | endpoint: mean survival time, dose: 2.0 mg/kg/injection, schedule: Q#A X002 (ip), vehicle: carboxymethylcellulose (CMC) 110 % of control | endpoint: mean survival time, dose: 2.5 mg/kg/injection, schedule: Q01DX009 (ip), vehicle: saline 116 % of control | endpoint: mean survival time, dose: 4.0 mg/kg/injection, schedule: Q01DX001 (ip), vehicle: carboxymethylcellulose (CMC) 120 % of control | endpoint: mean survival time, dose: 4.0 mg/kg/injection, schedule: Q03HX008 (ip), vehicle: carboxymethylcellulose (CMC) 108 % of control | endpoint: mean survival time, dose: 4.0 mg/kg/injection, schedule: Q06HX004 (ip), vehicle: carboxymethylcellulose (CMC) 114 % of control | endpoint: mean survival time, dose: 8.0 mg/kg/injection, schedule: Q01DX001 (ip), vehicle: carboxymethylcellulose (CMC) 124 % of control | endpoint: mean survival time, dose: 8.0 mg/kg/injection, schedule: Q03HX008 (ip), vehicle: carboxymethylcellulose (CMC) 118 % of control | endpoint: mean survival time, dose: 8.0 mg/kg/injection, schedule: Q06HX004 (ip), vehicle: carboxymethylcellulose (CMC) 116 % of control | endpoint: mean survival time, dose: 8.0 mg/kg/injection, schedule: Q#A X002 (ip), vehicle: carboxymethylcellulose (CMC) 122 % of control | endpoint: median survival time, dose: 0.06 mg/kg/injection, schedule: Q03HX024 (ip), vehicle: other 107 % of control | endpoint: median survival time, dose: 0.13 mg/kg/injection, schedule: Q03HX008 (ip), vehicle: other 102 % of control | endpoint: median survival time, dose: 0.13 mg/kg/injection, schedule: Q03HX016 (ip), vehicle: other 96 % of control | endpoint: median survival time, dose: 0.13 mg/kg/injection, schedule: Q03HX024 (ip), vehicle: other 100 % of control | endpoint: median survival time, dose: 0.25 mg/kg/injection, schedule: Q01DX009 (ip), vehicle: other 94 % of control | endpoint: median survival time, dose: 0.25 mg/kg/injection, schedule: Q01DX009 (sc), vehicle: other 93 % of control | endpoint: median survival time, dose: 0.25 mg/kg/injection, schedule: Q03HX008 (ip), vehicle: other 96 % of control | endpoint: median survival time, dose: 0.25 mg/kg/injection, schedule: Q03HX016 (ip), vehicle: other 94 % of control | endpoint: median survival time, dose: 0.25 mg/kg/injection, schedule: Q03HX024 (ip), vehicle: other 101 % of control | endpoint: median survival time, dose: 0.5 mg/kg/injection, schedule: Q01DX009 (ip), vehicle: other 88 % of control | endpoint: median survival time, dose: 0.5 mg/kg/injection, schedule: Q01DX009 (oral), vehicle: other 99 % of control | endpoint: median survival time, dose: 0.5 mg/kg/injection, schedule: Q01DX009 (sc), vehicle: other 98 % of control | endpoint: median survival time, dose: 0.5 mg/kg/injection, schedule: Q03HX008 (ip), vehicle: other 100 % of control | endpoint: median survival time, dose: 0.5 mg/kg/injection, schedule: Q03HX016 (ip), vehicle: other 101 % of control | endpoint: median survival time, dose: 0.5 mg/kg/injection, schedule: Q03HX024 (ip), vehicle: other 96 % of control | endpoint: median survival time, dose: 0.5 mg/kg/injection, schedule: Q04DX003 (ip), vehicle: other 98 % of control | endpoint: median survival time, dose: 1.0 mg/kg/injection, schedule: Q01DX001 (ip), vehicle: other 102 % of control | endpoint: median survival time, dose: 1.0 mg/kg/injection, schedule: Q01DX001 (sc), vehicle: other 104 % of control | endpoint: median survival time, dose: 1.0 mg/kg/injection, schedule: Q01DX009 (ip), vehicle: other 92 % of control | endpoint: median survival time, dose: 1.0 mg/kg/injection, schedule: Q01DX009 (oral), vehicle: other 99 % of control | endpoint: median survival time, dose: 1.0 mg/kg/injection, schedule: Q01DX009 (sc), vehicle: other 98 % of control | endpoint: median survival time, dose: 1.0 mg/kg/injection, schedule: Q03HX008 (ip), vehicle: other 99 % of control | endpoint: median survival time, dose: 1.0 mg/kg/injection, schedule: Q03HX016 (ip), vehicle: other 93 % of control | endpoint: median survival time, dose: 1.0 mg/kg/injection, schedule: Q04DX003 (ip), vehicle: other 99 % of control | endpoint: median survival time, dose: 1.0 mg/kg/injection, schedule: Q08DX002 (ip), vehicle: other 108 % of control | endpoint: median survival time, dose: 2.0 mg/kg/injection, schedule: Q01DX001 (ip), vehicle: other 111 % of control | endpoint: median survival time, dose: 2.0 mg/kg/injection, schedule: Q01DX001 (oral), vehicle: other 99 % of control | endpoint: median survival time, dose: 2.0 mg/kg/injection, schedule: Q01DX001 (sc), vehicle: other 103 % of control | endpoint: median survival time, dose: 2.0 mg/kg/injection, schedule: Q01DX009 (oral), vehicle: other 100 % of control | endpoint: median survival time, dose: 2.0 mg/kg/injection, schedule: Q01DX009 (sc), vehicle: other 91 % of control | endpoint: median survival time, dose: 2.0 mg/kg/injection, schedule: Q04DX003 (ip), vehicle: other 111 % of control | endpoint: median survival time, dose: 2.0 mg/kg/injection, schedule: Q08DX002 (ip), vehicle: other 104 % of control | endpoint: median survival time, dose: 4.0 mg/kg/injection, schedule: Q01DX001 (ip), vehicle: other 113 % of control | endpoint: median survival time, dose: 4.0 mg/kg/injection, schedule: Q01DX001 (oral), vehicle: other 96 % of control | endpoint: median survival time, dose: 4.0 mg/kg/injection, schedule: Q01DX001 (sc), vehicle: other 99 % of control | endpoint: median survival time, dose: 4.0 mg/kg/injection, schedule: Q01DX009 (oral), vehicle: other 101 % of control | endpoint: median survival time, dose: 4.0 mg/kg/injection, schedule: Q01DX009 (sc), vehicle: other 93 % of control | endpoint: median survival time, dose: 4.0 mg/kg/injection, schedule: Q04DX003 (ip), vehicle: other 106 % of control | endpoint: median survival time, dose: 4.0 mg/kg/injection, schedule: Q08DX002 (ip), vehicle: other 114 % of control | endpoint: median survival time, dose: 8.0 mg/kg/injection, schedule: Q01DX001 (ip), vehicle: other 110 % of control | endpoint: median survival time, dose: 8.0 mg/kg/injection, schedule: Q01DX001 (oral), vehicle: other 101 % of control | endpoint: median survival time, dose: 8.0 mg/kg/injection, schedule: Q01DX001 (sc), vehicle: other 100 % of control | endpoint: median survival time, dose: 8.0 mg/kg/injection, schedule: Q01DX009 (oral), vehicle: other 103 % of control | endpoint: median survival time, dose: 8.0 mg/kg/injection, schedule: Q04DX003 (ip), vehicle: other 90 % of control | endpoint: median survival time, dose: 8.0 mg/kg/injection, schedule: Q08DX002 (ip), vehicle: other 108 % of control | endpoint: median survival time, dose: 16.0 mg/kg/injection, schedule: Q01DX001 (oral), vehicle: other 100 % of control | endpoint: median survival time, dose: 32.0 mg/kg/injection, schedule: Q01DX001 (oral), vehicle: other 86 % of control

S=C(CSc1ccccc1)Nc1cccc2ccccc12
inactive: [1] 101 % of control | [2] 91 % of control | [3] 93 % of control

CCCCS(=O)C(Cl)(CCC)C(C)(C)O (stereo not drawn)
inactive: [1] 97 % of control | [2] 93 % of control | [3] 97 % of control

CS(=O)(=O)OCCF
inactive: endpoint: mean survival time, dose: 1.5 mg/kg/injection, schedule: Q04DX003 (ip), vehicle: saline with Tween-80 98 % of control | endpoint: mean survival time, dose: 3.0 mg/kg/injection, schedule: Q04DX003 (ip), vehicle: saline with Tween-80 98 % of control | endpoint: mean survival time, dose: 6.0 mg/kg/injection, schedule: Q04DX003 (ip), vehicle: saline with Tween-80 103 % of control
